The results in this text go back to patent publication US11273217B2, “Cancer treatment composition combining anti-CD26 antibody and other anticancer agent” (Y's AC Co., Ltd., priority 2015, dated 2022).

Holding throughout (format): cell-based
Data set [1] deals with MSTO-wt (CD26-negative malignant mesothelioma cell line MSTO-211H). Briefly: WST-1 cytotoxicity assay, MSTO wt. As to conditions: 48 hours. From the text:
(§1) A CD26-negative malignant mesothelioma cell line MSTO-211H (MSTO) (American Type Cell Culture Collection, Manassas, Va.) was transfected with CD26 gene, which was designated as MSTO clone 12 (Aoe K et al., Clin Cancer Res. (2012) 18: 1447-56). A CD26-negative T-cell leukemia cell line Jurkat (American Type Cell Culture Collection, Manassas, Va.) was transfected with CD26 gene, which was designated as Jurkat CD26(+) (Tanaka T et al., Proc Natl Acad Sci USA (1993) 90: 4586-90). A CD26-positive cell line JMN established from malignant mesothelioma was kindly provided by professor Chikao Morimoto, the Institute of Medical Science, the University of Tokyo. All the cell lines were cultured in RPMI medium (catalog No. 11875-093, Life Technologies Corp., Carlsbad, Calif.) containing 10% heat-inactivated fetal bovine serum (FBS, Life Technologies Corp., Carlsbad, Calif.), ABPC (100 μg/ml), and streptomycin (100 μg/ml) at 37° C. under 5% CO2 environment.
(§2) WST-1 assay was conducted according to the manual provided by the manufacturer. The background absorbance of each sample at 630 nm was subtracted from the measurement value thereof at 450 nm. The experiment was conducted in triplicate, and typical results are shown.
(Formazan colour is commonly taken as a measure of viable cells.)

In data set [2] the test system is Jurkat CD26(+) (T-cell leukemia cell line). The experiment in a line: WST-1 cytotoxicity assay, Jurkat CD26(+). The following applies: 48 hours.
Source text: as §1
(§3) WST-1 assay was conducted according to the manual provided by the manufacturer. The background absorbance of each sample at 630 nm was subtracted from the measurement value thereof at 450 nm.

The subject of data set [3] is MSTO clone 12 (CD26-positive malignant mesothelioma cell line). Briefly: WST-1 cytotoxicity assay, MSTO clone 12.
Source text: as §1, §3

Data set [4] relates to JMN (CD26-positive malignant mesothelioma cell line). Briefly: WST-1 cytotoxicity assay, JMN. The following applies: 48 hours.
Source text: as §1, §3

The test system of data set [5] is Jurkat CD26(−) (T-cell leukemia cell line). Briefly: WST-1 cytotoxicity assay, Jurkat CD26(−). The following applies: 48 hours.
Source text: as §1, §2

The test system of data set [6] is H2452 cells. The experiment in a line: MTT cell growth assay, H2452. As to conditions: 10^−9 to 10^−4 M; day 2. On the procedure:
(§4) MESO1 or H2452 cells (2×10^3 cells/well) were inoculated to a 96-well plate. One hour later, cisplatin or pemetrexed was added thereto at 10^−9, 10^−8, 10^−7, 10^−6, 10^−5, or 10^−4 M (n=6). At day 2, MTT assay was conducted.
H2452 cells (2×10^3 cells/well) were inoculated to a 96-well plate. One hour later, the combination of 0.03, 0.3, or 1 μM cisplatin and 0.1, 3, or 10 μg/ml YS110, or the combination of 0.01, 0.1, or 0.3 μM pemetrexed and 0.1, 3, or 10 μg/ml YS110 was added thereto (n=6). At day 2, MTT assay was conducted. Significant difference was tested by two-tailed t-test (vs Cont).
(§5) MESO1 cells (2×10^3 cells/well) or H2452 cells (2×10^3 cells/well) were inoculated to a 96-well plate. One hour later, 0.3 μM cisplatin-0.1 μM pemetrexed combination, or YS110 (10 μg/ml) plus the 0.3 μM cisplatin-0.1 μM pemetrexed combination was added thereto (n=6). At day 2, MTT assay was conducted. Significant difference was tested by two-tailed t-test (vs Cont).
(§6) Gemcitabine was studied for its effect on the growth of a mesothelioma cell line. A mesothelioma cell line MESO1, JMN, H2452, or H226 (2×10^3 cells/well) was inoculated to a 96-well plate. One hour later, gemcitabine (10^−9, 10^−8, 10^−7, 10^−6, 10^−5, or 10^−4 M) was added thereto (N=6). 2 days later, MTT assay was conducted. Significant difference was tested by two-tailed t-test (vs Cont).
H2452 cells (2×10^3 cells/well) were inoculated to a 96-well plate. One hour later, gemcitabine (0, 10^−8, 3×10^−8, or 10^−7 M) and YS110 (0, 1, 3, or 10 μg/ml) were added thereto in combination. At day 2, MTT assay was conducted. Significant difference was tested by two-tailed t-test (vs Cont). Next, interaction in concomitant use of medications was studied (n=6). The interaction between YS110 and gemcitabine used concomitantly was analyzed by two-way ANOVA.
(§7) MESO1, JMN, H2452 or H226 cells (2×10^3 cells/well were inoculated to a 96-well plate. One hour later, 3×10^−8 M or 10^−7 M gemcitabine was added thereto by concomitant use with the combination of cisplatin (0, 0.1, 0.3, or 1 μM) and pemetrexed (0, 0.03, 0.1, or 0.3 μM) (n=6). At day 2, MTT assay was conducted.
(§8) The growth inhibitory effect of gemcitabine (10^−9 to 10^−4 M) was compared using MESO1, H2452, JMN, and H226 cell lines.

The subject of another data set is JMN cells. The experiment in a line: MTT cell growth assay, JMN. As to conditions: MESO1 (CD9+) vs JMN (CD9−); 10^−9 to 10^−4 M. As to the method:
as §6
JMN cells (2×10^3 cells/well) were inoculated to a 96-well plate. One hour later, gemcitabine (0, 3×10^−10, 10^−9, or 3×10^−8 M) and YS110 (0, 1, 3, or 10 μg/ml) were added thereto in combination. At day 2, MTT assay was conducted. Significant difference was tested by two-tailed t-test (vs Cont). Next, interaction in concomitant use of medications was studied (n=6). The interaction between YS110 and gemcitabine used concomitantly was analyzed by two-way ANOVA.
as §7
(§9) The growth inhibitory effects of cisplatin (10^−9 to 10^−4 M) and pemetrexed (10^−9 to 10^−4 M) were compared using the MESO1 and JMN cell lines.
as §8

Data set [7] concerns MESO1 cells. The experiment in a line: Boyden chamber invasion assay, MESO1. The following applies: 24 hours; for action on cell invasion (in words): cisplatin at 10 and 30 μM, pemetrexed even at 30 μM. On the procedure: (§10) MESO1 cells or H2452 cells (2.5×10^4 cells/well) were inoculated to a Boyden chamber. One hour later, cisplatin (5, 10, or 30 μM) or pemetrexed (1, 10, or 30 μM) was added thereto (n=5), followed by Boyden chamber invasion assay. 24 hours after the cell inoculation, invasive cells were stained with Diff-Quik-staining kit. Significant difference was tested by two-tailed t-test (vs Cont).
(§11) MESO1 cells or H2452 cells (2.5×10^4 cells/well) were inoculated to a Boyden chamber. One hour later, the combination of cisplatin (0, 3, or 10 μM) and pemetrexed (0, 10, or 30 μM) was added thereto (n=5), followed by Boyden chamber invasion assay. 24 hours after the cell inoculation, invasive cells were stained with Diff-Quik-staining kit. Significant difference was tested by two-tailed t-test (vs Cont).
MESO1 cells (2.5×10^4 cells/well) were inoculated to a Boyden chamber. One hour later, the combination of cisplatin (0, 3, or 10 μM) and YS110 (0, 10, or 20 μg/ml) was added thereto (n=5), followed by Boyden chamber invasion assay. 24 hours after the cell inoculation, invasive cells were stained with Diff-Quik-staining kit. Significant difference was tested by two-tailed t-test (vs Cont). Next, the interaction of YS110 with cisplatin-pemetrexed concomitant use was studied. The interaction was analyzed by two-way ANOVA.

In data set [8] the test system is H2452 cells. The experiment in a line: Boyden chamber invasion assay, H2452. The following applies: 24 hours; for action on cell invasion (in words): cisplatin at 10 and 30 μM, pemetrexed even at 30 μM. On the procedure: as §10, §11
H2452 cells (2.5×10^4 cells/well) were inoculated to a Boyden chamber. One hour later, the combination of cisplatin (0, 3, or 10 μM) and YS110 (0, 10, or 20 μg/ml) was added thereto (n=5), followed by Boyden chamber invasion assay. 24 hours after the cell inoculation, invasive cells were stained with Diff-Quik-staining kit. Significant difference was tested by two-tailed t-test (vs Cont). Next, the interaction of YS110 with cisplatin-pemetrexed concomitant use was studied. The interaction was analyzed by two-way ANOVA.

In data set [9] the test system is MESO1 cells. Briefly: MTT cell growth assay, MESO1. The following applies: 10^−9 to 10^−4 M; day 2. On the procedure:
as §4
MESO1 cells (2×10^3 cells/well) were inoculated to a 96-well plate. One hour later, the combination of 0.3, 3, or 10 μM cisplatin and 0.1, 3, or 10 μg/ml YS110, or the combination of 0.03, 0.3, or 1 μM pemetrexed and 0.1, 3, or 10 μg/ml YS110 was added thereto. At day 2, MTT assay was conducted. Significant difference was tested by two-tailed t-test (vs Cont).
as §5, §6
MESO1 cells (2×10^3 cells/well) were inoculated to a 96-well plate. One hour later, gemcitabine (0, 10^−8, 3×10^−8, or 10^−7 M) and YS110 (0, 1, 3, or 10 μg/ml) were added thereto in combination. At day 2, MTT assay was conducted. Significant difference was tested by two-tailed t-test (vs Cont). Next, interaction in concomitant use of medications was studied (n=6). The interaction between YS110 and gemcitabine used concomitantly was analyzed by two-way ANOVA.
as §7, §9, §8

Where [10] appears, read: pemetrexed even at 30 μM with cisplatin 10 μM.

Where two headings read alike, the source gives them in different places.

Consider `CC(C)[C@]12O[C@H]1[C@@H]1O[C@@]13C1(C)CCC4=C(COC4=O)[C@@H]1C[C@@H]1O[C@@]13[C@@H]2O` (stereo partly drawn) [Triptolide, (3bS,4aS,5aS,6R,6aR,7aS,7bS,8aS,8bS)-6-hydroxy-6a-isopropyl-8b-methyl-3b,4,4a,6,6a,7a,7b,8b,9,10-decahydrotrisoxireno[6,7:8a,9:4b,5]phenanthro[1,2-c]furan-1(3H)-one], for which the IC50 is 10 nM in data set [1] (Homo sapiens, MSTO-211H, MSTO wt, CD26 (−)); 6 nM in [2] (Homo sapiens, Jurkat CD26 (+)); 10 nM in data set [3] (MSTO clone12, CD26 (+), 48 hours, read-out: IC50); 15 nM in data set [4] (CD26 (+)); over 100 nM in data set [5] (Homo sapiens, Jurkat (−)). The “cytotoxicity (in words)” value in data set [1] (MSTO-wt) is reported as “dose-dependent toxic effect”; in data set [2] (Jurkat CD26(+)), “dose-dependent toxic effect”; in [3] (MSTO clone 12, 48 hours), “dose-dependent toxic effect”; in data set [4] it was “dose-dependent toxic effect”; in data set [5] (Jurkat), “dose-dependent toxic effect”.
`N.N.[Cl][Pt][Cl]` [cisplatin]: the “cell growth, single drug dose-response (in words)” value in the data set with H2452 cells [6] and in the data set on MESO1 cells [9] was “suppressed the growth” in each case. Further, the “growth inhibitory effect compared between MESO1 and JMN” value in the data set on JMN cells is reported as “did not differ”. For the same molecule, the “action on cell invasion (in words)” value with MESO1 cells [7] and with H2452 cells [8] was “suppressed cell invasion” in each case.
On to `Nc1nc2[nH]cc(CCc3ccc(C(=O)N[C@@H](CCC(=O)O)C(=O)O)cc3)c2c(=O)[nH]1` [pemetrexed], for which the “cell growth, single drug dose-response (in words)” value in the data set on H2452 cells [6] and with MESO1 cells [9] was “suppressed the growth” each time. Besides, the “growth inhibitory effect compared between MESO1 and JMN” value with JMN cells is “did not differ”. Besides, the “action on cell invasion (in words)” value with MESO1 cells [7] and with H2452 cells [8] was “no inhibitory action on invasion” each time. Moreover, the “effect of pemetrexed on the cell invasion inhibitory effect of cisplatin” value with MESO1 cells [7] (setting [10]) and in the data set with H2452 cells [8] (setting [10]) was “did not potentiate” in each case.

B1: Y-TR1 SPDP (conjugate)
heavy: EVQLVESGAGVKQPGGTLRLTCTASGFSLTTYGVHWVRQAPGKGLEWVGVIWGDGRTDYDAAFMSRVTISKDTSKSTVYLQMNSLRAEDTAVYYCMRNRHDWFDYWGQGTTVTVSSASTKGPSVFPLAPSSKSTSGGTAALGCLVKDYFPEPVTVSWNSGALTSGVHTFPAVLQSSGKLSSVVTVPSSSLGTQTYICNVNHKPSNTKVDKKVEPKSCDKTHTCPPCPAPELLGGPSVFLFPPKPKDTLMISRTPEVTCVVVDVSHEDPEVKFNWYVDGVEVHNAKTKPREEQYNSTYRVVSVLTVLHQDWLNGKEYKCKVSNKALPAPIEKTISKAKGQPREPQVYTLPPSRDELTKNQVSLTCLVKGFYPSDIAVEWESNGQPENNYKTTPPVLDSDGSFFKKLTVDKSRWQQGNVFSCSVMHEALHNHYTQKSLSLSPGK
light: DILLTQSPSSLSATPGERATITCRASQGIRNNLNWYQQKPGQAPRLLIYYSSNLQSGVPSRFSGSGSGTDFTLTISRLQPEDVAAYYCQQSIKLPFTFGSGTKVEIKRTVAAPSVFIFPPSDEQLKSGTASVVCLLNNFYPREAKVQWKVDNALQSGNSQESVTEQDSKDSTYSLSSTLTLSKADYEKHKVYACEVTHQGLSSPVTKSFNRGEC
In the case of B1, the IC50 in data set [3] (MSTO clone12, CD26 (+), 48 hours) is 38 µg/mL; in [3] (Table 5: comparison among 3 types of linkers, MSTO clone 12), 35 µg/mL.

A word on the IC50: it is the midpoint of a concentration-inhibition curve.
